{
  "source": "patent US20250082633A1",
  "about": "“COMPOUNDS AND METHODS FOR MODULATING SPLICING” (REMIX THERAPEUTICS INC., priority 2021, published 2025)",
  "note": "Structures can show the parent of a compound that is named as a salt.",
  "data": [
    {"test_system": "HiBiT-tagged HTT protein in K562 cells", "assay": "HiBit protein abundance assay, HTT", "type": "cell-based, human", "conditions": "K562 HiBiT-modified cells, 24 hours, luminescence", "description": "Compounds described herein were used to screen for effects on quantitative protein abundance using a HiBit assay system (Promega). Quantitative protein abundance was determined by measuring the protein levels of HiBit-tagged protein targets expressed in cell culture via luminescence using the Nano-Glo HiBiT Lytic Detection System, which uses a split complementation assay format to reconstitute NanoBiT enzyme to generate a luminescent signal. A protein abundance assay was developed such that endogenous protein targets could be modified with the HiBiT peptide tag and their abundance could be assessed after compound treatment. Briefly, K562 cell lines containing a HiBiT-modification were treated with various compounds described herein (e.g., compounds of Formulas (I), (II), or (III)). After treatment for 24 hours, the protein abundance of a specific target was determined by measuring luminescence. • Promega Nano-Glo HiBiT Lytic Detection System (cat #N3030) • Corning 384-well TC-treated microplates (cat #3570) • Synthego Engineered Cells Knock-In Clones [table] Cells were maintained in IMDM with 10% FBS. Before the assay, cells were diluted with phenolphthalein-free growth media (IMDM+1% FBS media) and were seeded in a 384-well plate at a density of 10000 cells/well (for each cell line listed in Table 6). Each compound was prepared as a 10-point 3-fold serial dilution in DMSO with the top dose at a final concentration of 10 μM in the well. Unmodified K562 cells were added at the previously specified density with DMSO to serve as an assay baseline and positive control (PC) and DMSO only with the respective modified cell lines was added to the negative control (NC) columns. Final DMSO concentration was kept at or below 0.25%. Treated cell plates were placed in an incubator at 37° C. with 5% CO2 for 24 hours. After 24 hours, 25 μL of Complete HiBit Lytic reagent was added to each well at room temperature (e.g. one plate requiring 10 mL Lytic Buffer, 100 μL LgBiT Protein, 200 μL Lytic Substrate), shaken for 5 minutes at 600 RPM, then left to sit for 10 minutes for signal to stabilize before reading on a Spark Cyto plate reader (Tecan) with a 500 ms measurement time. To determine compound effects on protein abundance of each target in Table 6, the percent response for each respective cell line was calculated at each compound concentration as follows: For the normalized response at each concentration, a four-parameter logistical regression was fit to the data and the response was interpolated at the 50% value to determine a concentration for protein abundance at 50% (IC50) the untreated control.", "units": {"IC50": "nM"}, "values": [
      {"smiles": "Cn1cc2cc(-c3cc(F)c4nn(C5CCNCC5)nc4c3)cc(F)c2n1", "note": "[Compound 103, 4-fluoro-6-(7-fluoro-2-methyl-indazol-5-yl)-2-(4-piperidyl) benzotriazole]", "IC50": "100 to 1000"},
      {"smiles": "CCN1CCC(n2cc3cc(-c4cc(F)c5nn(C)cc5c4)cc(F)c3n2)CC1", "note": "[Compound 104, 2-(1-ethyl-4-piperidyl)-7-fluoro-5-(7-fluoro-2-methyl-indazol-5-yl)indazole]", "IC50": "100 to 1000"},
      {"smiles": "Cn1cc2cc(-c3ccc4nn(C5CCNCC5)cc4c3)cc(F)c2n1", "note": "[Compound 105, 7-fluoro-2-methyl-5-[2-(4-piperidyl)indazol-5-yl]indazole]", "IC50": "100 to 1000"},
      {"smiles": "Cn1cc2cc(-c3ccc4nn(C5CCNCC5)cc4n3)c(O)c(F)c2n1", "note": "[Compound 107, 7-fluoro-2-methyl-5-[2-(4-piperidyl)pyrazolo [4,3-b]pyridin-5-yl]indazol-6-ol]", "IC50": "100 to 1000"},
      {"smiles": "Cn1cc2cc(-c3cc(F)c4nn(C5CCNC6(CC6)C5)cc4c3)cc(F)c2n1", "note": "(stereo not drawn) [Compound 108, 2-(4-azaspiro[2.5]octan-7-yl)-7-fluoro-5-(7-fluoro-2-methyl-indazol-5-yl)indazole]", "IC50": "100 to 1000"},
      {"smiles": "Cc1c(O)c(-c2ccc3nn(C4CCNCC4)cc3n2)cc2cn(C)nc12", "note": "[Compound 109, 2,7-dimethyl-5-[2-(4-piperidyl)pyrazolo[4,3-b]pyridin-5-yl]indazol-6-ol]", "IC50": "< 100"},
      {"smiles": "Cn1cc2cc(-c3ccc4nn(C5CCNCC5)cc4n3)c(O)cc2n1", "note": "[Compound 110, 2-methyl-5-[2-(4-piperidyl)pyrazolo[4,3-b]pyridin-5-yl]indazol-6-ol]", "IC50": "100 to 1000"},
      {"smiles": "Cc1c(O)c(-c2ccc3nn(C4CCNCC4)nc3n2)cc2cn(C)nc12", "note": "[Compound 113, 2,7-dimethyl-5-[2-(4-piperidyl)triazolo[4,5-b]pyridin-5-yl]indazol-6-ol]", "IC50": "1000 to 10000"},
      {"smiles": "Cc1cc(-n2cc3cc(C4CCNCC4)cc(F)c3n2)cc2cn(C)nc12", "note": "[Compound 115, 2-(2,7-dimethylindazol-5-yl)-7-fluoro-5-(4-piperidyl)indazole]", "IC50": "1000 to 10000"},
      {"smiles": "Cc1cc(-n2cc3cc(N4CCNCC4)cc(F)c3n2)cc2cn(C)nc12", "note": "[Compound 117, 2-(2,7-dimethylindazol-5-yl)-7-fluoro-5-piperazin-1-yl-indazole]", "IC50": "1000 to 10000"},
      {"smiles": "Cc1nc2c(C)cc(-n3cc4cc(N5CCNCC5)cc(F)c4n3)cc2o1", "note": "[Compound 119, 6-(7-fluoro-5-piperazin-1-yl-indazol-2-yl)-2,4-dimethyl-1,3-benzoxazole]", "IC50": "> 10000"},
      {"smiles": "Cc1cn2nc(-n3cc4cc(C5CCNCC5)cc(F)c4n3)cc(C)c2n1", "note": "[Compound 120, 6-[7-fluoro-5-(4-piperidyl)indazol-2-yl]-2,8-dimethyl-imidazo[1,2-b]pyridazine]", "IC50": "1000 to 10000"},
      {"smiles": "Cc1cc(-n2cc3cc(N4CCNCC4)ccc3n2)cc2cn(C)nc12", "note": "[Compound 121, 2,7-dimethyl-5-(5-piperazin-1-ylindazol-2-yl)indazole]", "IC50": "> 10000"},
      {"smiles": "Cc1cn2nc(-c3cc(F)c4nn(C5CCNCC5)cc4c3)cc(C)c2n1", "note": "[Compound 122, 6-(7-fluoro-2-(piperidin-4-yl)-2H-indazol-5-yl)-2,8-dimethylimidazo [1,2-b]pyridazine hydrochloride salt]", "IC50": "< 100"},
      {"smiles": "Cc1nc2c(C)c(O)c(-c3cc(F)c4nn(C5CCNCC5)cc4c3)cc2o1", "note": "[Compound 123, 6-[7-fluoro-2-(4-piperidyl)indazol-5-yl]-2,4-dimethyl-1,3-benzoxazol-5-ol]", "IC50": "100 to 1000"},
      {"smiles": "Cc1cn2nc(-c3cc(F)c4nn(C5CCNCC5)cc4c3)cc2c(C)n1", "note": "[Compound 124, 2-[7-fluoro-2-(4-piperidyl)indazol-5-yl]-4,6-dimethyl-pyrazolo[1,5-a]pyrazine]", "IC50": "< 100"},
      {"smiles": "Cc1cn2cc(-c3cc(F)c4nn(C5CCNCC5)cc4c3)cc(C)c2n1", "note": "[Compound 125, 5-(2,8-dimethylimidazo[1,2-a]pyridin-6-yl)-7-fluoro-2-(4-piperidyl)indazole]", "IC50": "< 100"},
      {"smiles": "Cc1c(O)c(-c2cc(F)c3nn(C4CCNCC4)cc3c2)cc2cn(C)nc12", "note": "[Compound 126, 5-[7-fluoro-2-(4-piperidyl)indazol-5-yl]-2,7-dimethyl-indazol-6-ol]", "IC50": "1000 to 10000"},
      {"smiles": "Cc1cn2cc(-c3cc(F)c4nn(C5CCNCC5)cc4c3)cc(Cl)c2n1", "note": "[Compound 127, 5-(8-chloro-2-methylimidazo[1,2-a]pyridin-6-yl)-7-fluoro-2-(piperidin-4-yl)-2H-indazole hydrochloride salt]", "IC50": "< 100"},
      {"smiles": "Cc1cn2cc(-c3cc(F)c4nn(C5CCNCC5)cc4c3)cc(F)c2n1", "note": "[Compound 129, 7-fluoro-5-(8-fluoro-2-methylimidazo[1,2-a]pyridin-6-yl)-2-(piperidin-4-yl)-2H-indazole]", "IC50": "< 100"},
      {"smiles": "Cn1cc2cc(-c3cc(F)c4nn(C5CCNCC5)cc4c3)cc(C#N)c2n1", "note": "[Compound 130, 5-[7-fluoro-2-(4-piperidyl)indazol-5-yl]-2-methyl-indazole-7-carbonitrile]", "IC50": "< 100"},
      {"smiles": "Cc1cn2cc(-c3cc(F)c4nn(C5CCNCC5)cc4c3)nc(C)c2n1", "note": "[Compound 132, 6-[7-fluoro-2-(4-piperidyl)indazol-5-yl]-2,8-dimethyl-imidazo[1,2-a]pyrazine]", "IC50": "100 to 1000"},
      {"smiles": "Cc1cc(-c2cc(F)c3nn(C4CCNCC4)cc3c2)cc2cn(C)nc12", "note": "[Compound 133, 5-(2,7-dimethylindazol-5-yl)-7-fluoro-2-(4-piperidyl)indazole]", "IC50": "< 100"},
      {"smiles": "Cc1nc2ccc(-c3cc(F)c4nn(C5CCNCC5)cc4c3)cc2s1", "note": "[Compound 134, 6-(7-fluoro-2-(piperidin-4-yl)-2H-indazol-5-yl)-2-methylbenzo[d]thiazole]", "IC50": "1000 to 10000"},
      {"smiles": "Cc1nc2ccc(-c3cc(F)c4nn(C5CCNCC5)cc4c3)cc2o1", "note": "[Compound 135, 6-[7-fluoro-2-(4-piperidyl)indazol-5-yl]-2-methyl-1,3-benzoxazole]", "IC50": "< 100"},
      {"smiles": "Cc1nc2c(F)cc(-c3cc(F)c4nn(C5CCNCC5)cc4c3)cc2o1", "note": "[Compound 136, 4-fluoro-6-[7-fluoro-2-(4-piperidyl)indazol-5-yl]-2-methyl-1,3-benzoxazole]", "IC50": "< 100"},
      {"smiles": "Cc1nc2c(C)cc(-c3cc(F)c4nn(C5CCNCC5)cc4c3)cc2o1", "note": "[Compound 137, 6-[7-fluoro-2-(4-piperidyl)indazol-5-yl]-2,4-dimethyl-1,3-benzoxazole]", "IC50": "< 100"},
      {"smiles": "Cc1cn2nc(-c3ccc4nn(C5CCNCC5)cc4n3)cc(C)c2n1", "note": "[Compound 138, 2,8-dimethyl-6-[2-(4-piperidyl)pyrazolo[4,3-b]pyridin-5-yl]imidazo[1,2-b]pyridazine]", "IC50": "100 to 1000"},
      {"smiles": "Cc1cn2nc(-c3cc4cn(C5CCNCC5)nc4c(O)n3)cc(C)c2n1", "note": "[Compound 139, 5-(2,8-dimethylimidazo[1,2-b]pyridazin-6-yl)-2-(4-piperidyl)-6H-pyrazolo[3,4-c]pyridin-7-one]", "IC50": "100 to 1000"},
      {"smiles": "COc1cc(-c2cc3cn(C)nc3cc2O)nc2cn(C3CCNCC3)nc12", "note": "[Compound 140, 5-[7-methoxy-2-(4-piperidyl)pyrazolo[4,3-b]pyridin-5-yl]-2-methyl-indazol-6-ol]", "IC50": "1000 to 10000"},
      {"smiles": "Cn1cc2cc(-c3cc(Cl)c4nn(C5CCNCC5)cc4n3)c(O)cc2n1", "note": "[Compound 141]", "IC50": "> 10000"},
      {"smiles": "COC1=C(C)C2N=C(C)OC2C=C1c1cc(F)c2nn(C3CCNCC3)cc2n1", "note": "(stereo not drawn) [Compound 144]", "IC50": "1000 to 10000"},
      {"smiles": "Cn1cc2cc(-c3cc(F)c4nn(C5CCNCC5)cc4c3)ccc2n1", "note": "[Compound 145, 7-fluoro-5-(2-methylindazol-5-yl)-2-(4-piperidyl)indazole]", "IC50": "100 to 1000"}
    ]}
  ]
}
